Source: ChEMBL document CHEMBL1149966 (Bioorg Med Chem Lett, 1997)
Where “and” joins values, the source holds several entries; their conditions need not be identical. Equal entries are not always repeated.

Experiments:
[1] = test system: Human immunodeficiency virus 1; test: The activity against mutant HIV molecular clone wt (pNL4-3) was determined; type: functional, organism-based
[2] = test system: Human immunodeficiency virus 1; test: The activity against HIV was determined from patient number 302; type: functional, organism-based
[3] = test system: Human immunodeficiency virus 1; test: The activity against HIV was determined from patient number 337; type: functional, organism-based
[4] = test system: Human immunodeficiency virus 1; test: The activity against mutant HIV molecular clone V82A was determined; type: functional, organism-based
[5] = test system: Human immunodeficiency virus 1; test: The activity against mutant HIV molecular clone V82T was determined; type: functional, organism-based
[6] = test system: Human immunodeficiency virus 1; test: The activity against HIV was determined from patient number 313; type: functional, organism-based
[7] = test system: Human immunodeficiency virus 1; test: The activity against HIV multiply mutated strain M36M/I,V82V/A was determined from patient number 304; type: functional, organism-based
[8] = test system: Human immunodeficiency virus 1; test: The activity against HIV mutant strain V82S was determined from patient number 337; type: functional, organism-based
[9] = test system: Human immunodeficiency virus 1; test: The activity against HIV mutant strain V82A was determined from patient number 302; type: functional, organism-based
[10] = test system: Human immunodeficiency virus 1; test: The activity against HIV was determined from patient number 129; type: functional, organism-based
[11] = test system: Rattus norvegicus; test: Terminal phase half-life was evaluated in vivo in rat at a dose of 5 mg/kg by intra venous administration; type: ADME, organism-based; design: dose 5 mg/kg; details: iv
[12] = test system: MT4; test: Inhibitory potency towards recombinant HIV-1 3B in MT-4 cell using cytopathic effect as endpoint was evaluated in 0% human plasma; type: functional
[13] = test system: Human immunodeficiency virus 1; test: The activity against HIV mutant strain V82F was determined from patient number 313; type: functional, organism-based
[14] = test system: Human immunodeficiency virus 1; test: The activity against mutant HIV molecular clone V82F was determined; type: functional, organism-based
[15] = test system: Human immunodeficiency virus 1; test: The activity against HIV was determined from patient number 304; type: functional, organism-based
[16] = test system: MT4; test: Inhibitory potency towards recombinant HIV-1 3B in MT-4 cell was evaluated in 0% human plasma; type: functional, cell-based
[17] = test system: MT4; test: Inhibitory potency towards recombinant HIV-1 3B in MT-4 cell was evaluated in 50% human plasma; type: functional, cell-based
[18] = test system: Human immunodeficiency virus 1; test: The activity against multiply mutated strain M36I,I54V,A71V,V82T was determined from patient number 129; type: functional, organism-based
[19] = test system: Rattus norvegicus; test: Maximum plasma concentration was evaluated in vivo in rat at a dose of 5 mg/kg by oral administration; type: ADME, organism-based; design: dose 5 mg/kg, route oral
[20] = test system: Rattus norvegicus; test: Oral bioavailability in rat (dose 5 mg/kg); type: ADME, organism-based; details: in vivo

Structure (SMILES): CC(C)c1nc(CN(C)C(=O)N[C@@H](C(=O)N[C@@H](Cc2ccccc2)C[C@H](O)[C@H](Cc2ccccc2)NC(=O)OCc2cncs2)C(C)C)cs1
- EC50 [1]: 137 nM
- EC50 [2]: 46 nM
- EC50 [3]: 19 nM
- EC50 [4]: 121 nM
- EC50 [5]: 352 nM
- EC50 [6]: 35 nM
- EC50 [7]: 59 nM
- EC50 [8]: 22 nM
- EC50 [9]: 43 nM
- EC50 [10]: 5 nM
- T1/2 [11]: 1.8 h and 1.41 h and 0.63 h
- CCIC50 [12]: 27 µM
- EC50 [13]: 43 nM
- EC50 [14]: 276 nM
- EC50 [15]: 35 nM
- EC50 [16]: 120 nM
- EC50 [17]: 880 nM

Structure (SMILES): CC(C)c1nc(CN(C)C(=O)N[C@H](C(=O)N[C@@H](Cc2ccccc2)C[C@H](O)[C@H](Cc2ccccc2)NC(=O)OCc2cncs2)C(C)C)cs1 [RITONAVIR]
- EC50 [1]: 55 nM
- EC50 [3]: 35 nM
- EC50 [4]: 230 nM
- EC50 [18]: 65 nM
- EC50 [5]: 316 nM
- EC50 [6]: 35 nM
- EC50 [7]: 54 nM
- EC50 [8]: 143 nM
- EC50 [9]: 32 nM
- EC50 [10]: 5 nM
- CCIC50 [12]: 35 µM
- Cmax [19]: 1360 ng/mL and 3580 ng/mL
- EC50 [13]: 123 nM
- EC50 [14]: 308 nM
- EC50 [15]: 19 nM
- F [20]: 70.7% and 37.4% and 29.9%
- EC50 [16]: 90 nM
- EC50 [17]: 1070 nM
